Results taken from patent US11780849B2, “Imino sulfanone inhibitors of ENPP1” (Volastra Therapeutics, Inc., priority 2020, dated 2023).
Where two headings read alike, the source gives them in different places.

Biological target: ENPP-1 ECD (Homo sapiens (Human), UniProt P22413)
Assay: Assay 2: inhibition of ENPP1 hydrolysis of 2′,3′-cGAMP (AMP-Glo, […] enzyme)
[1] = Assay 2 (KI), inhibition of ENPP1 hydrolysis of 2′,3′-cGAMP, no unit in Table 18 (Table 17 legend for this assay uses nM)
[2] = read-out: Assay 2 (KI), ENPP1 hydrolysis of 2′,3′-cGAMP, AMP-Glo, […] ENPP-1, 24 μM cGAMP
[3] = read-out: Assay 2 (KI), inhibition of ENPP1 hydrolysis of 2′,3′-cGAMP, no unit in Table 18 (Table 17 legend for this assay uses nM)
[4] = Assay 2 (KI), ENPP1 hydrolysis of 2′,3′-cGAMP, AMP-Glo, […] ENPP-1, 24 μM cGAMP

Chain of ENPP-1 ECD (P22413 98-925): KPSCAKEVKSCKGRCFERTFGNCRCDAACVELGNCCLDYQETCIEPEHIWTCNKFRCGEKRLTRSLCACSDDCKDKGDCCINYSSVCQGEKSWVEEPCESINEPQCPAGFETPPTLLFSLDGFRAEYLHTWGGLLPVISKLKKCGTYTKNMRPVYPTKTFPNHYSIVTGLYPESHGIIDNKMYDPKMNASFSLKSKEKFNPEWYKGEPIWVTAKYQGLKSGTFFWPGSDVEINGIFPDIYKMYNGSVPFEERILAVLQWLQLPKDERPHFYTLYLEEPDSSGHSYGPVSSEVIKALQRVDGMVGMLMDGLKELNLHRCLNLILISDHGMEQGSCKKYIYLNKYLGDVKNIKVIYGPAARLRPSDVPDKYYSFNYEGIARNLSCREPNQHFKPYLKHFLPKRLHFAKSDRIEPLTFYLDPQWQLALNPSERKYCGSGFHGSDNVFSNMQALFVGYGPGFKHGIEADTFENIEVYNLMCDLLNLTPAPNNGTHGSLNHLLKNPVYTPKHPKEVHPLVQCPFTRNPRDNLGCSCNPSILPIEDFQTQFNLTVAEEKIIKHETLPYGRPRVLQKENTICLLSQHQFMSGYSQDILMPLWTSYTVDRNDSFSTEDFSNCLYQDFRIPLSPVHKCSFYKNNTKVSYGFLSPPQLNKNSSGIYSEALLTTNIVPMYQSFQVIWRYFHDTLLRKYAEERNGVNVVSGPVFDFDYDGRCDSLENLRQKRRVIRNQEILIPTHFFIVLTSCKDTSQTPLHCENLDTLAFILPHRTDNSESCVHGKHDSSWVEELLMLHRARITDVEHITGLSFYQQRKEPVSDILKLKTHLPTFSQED
Experimental: Assay 2: Compared to the conditions in Assay 1, this assay has a larger dynamic range and ensures the system is under steady-state conditions by reducing the enzyme concentration in the assay.
Test compounds were plated in a 3× dilution scheme in a 384 well plate. […] AMP Detection solution (10 μL) was added to each well, the plate centrifuged and incubated for 60 min.

SMILES | Ki [1] | Ki [2] | Ki [3] | Ki [4]
COc1ccc2c(OCC3CCS(=N)(=O)CC3)ccnc2c1 (single isomer, unassigned) [Compound 107a, 4-[(1-imino-1-oxido-3,4,5,6-tetrahydro-2H-thiopyran-4-yl)methoxy]-7-methoxy-quinoline] | 27 nM | – | – | –
COc1ccc2c(OCC3CCS(=N)(=O)CC3)ccnc2c1 (single isomer, unassigned) [Compound 107b, 4-[(1-imino-1-oxido-3,4,5,6-tetrahydro-2H-thiopyran-4-yl)methoxy]-7-methoxy-quinoline] | 74 nM | – | – | –
COc1cc2ncnc(-c3ccc4c(c3)CN([S@@](C)(=N)=O)CC4)c2cc1OC [Compound 37a] | – | 3 to 300 nM | 21 nM | –
COc1ccc2c(-c3ccc4c(c3)CN([S@](C)(=N)=O)CC4)ccnc2c1 [Compound 52a] | – | 3 to 300 nM | 110 nM | –
COc1ccc2c(-c3ccc4c(c3)CN([S@@](C)(=N)=O)CC4)ccnc2c1 [Compound 52b] | – | 3 to 300 nM | 3.5 nM | –
COc1ccc2c(Oc3ccc(S(C)(=N)=O)cc3)ccnc2n1 (stereo not drawn) [Compound 78, imino(4-((7-methoxy-1,8-naphthyridin-4-yl)oxy)phenyl)(methyl)-λ^6-sulfanone] | 150 nM | – | – | 3 to 300 nM
COc1cc2ncnc(N3CCC(CN[S@](C)(=N)=O)CC3)c2cc1OC [Compound 94b] | – | 3 to 300 nM | 9 nM | –
COc1ccc2c(OCC3CCS(=N)(=O)CC3)ccnc2c1 (stereo not drawn) [Compound 107, 4-[(1-imino-1-oxido-3,4,5,6-tetrahydro-2H-thiopyran-4-yl)methoxy]-7-methoxy-quinoline] | 80 nM | – | – | –
COCCS(=N)(=O)c1ccc(Oc2ccnc3cc(OC)ccc23)cc1 (stereo not drawn) [Compound 122, imino(2-methoxyethyl){4-[(7-methoxyquinolin-4-yl)oxy]phenyl}-λ^6-sulfanone] | 1.6 nM | – | – | < 3 nM
COc1cc2nccc(N3CCC(CC[S@](C)(=N)=O)CC3)c2cc1Cl [Compound 141b] | – | 3 to 300 nM | 31 nM | –
COc1cc2ncnc(N3CCC(CCCS(C)(=N)=O)CC3)c2cc1OC (stereo not drawn) [Compound 145, {3-[1-(6,7-dimethoxyquinazolin-4-yl)piperidin-4-yl]propyl}(imino)methyl-λ^6-sulfanone] | 8.7 nM | – | – | 3 to 300 nM
COc1cccc2c(N3CCC(C[S@](C)(=N)=O)CC3)ncnc12 [Compound 146b] | – | – | 66 nM | –
COc1cc2ncnc(N3CCC(CS(C)(=N)=O)CC3)c2cc1OC (stereo not drawn) [Compound 147, {[1-(6,7-dimethoxyquinazolin-4-yl)piperidin-4-yl]methyl}(imino)methyl-λ^6-sulfanone] | 9.9 nM | – | – | 3 to 300 nM
COc1ccc2c(N3CCC(CS(C)(=N)=O)CC3)ccnc2c1 (stereo not drawn) [Compound 148, imino({[1-(7-methoxyquinolin-4-yl)piperidin-4-yl]methyl})methyl-λ^6-sulfanone] | 56 nM | – | – | 3 to 300 nM
COc1cc2nccc(N3CCC4(CC3)CCN([S@](C)(=N)=O)C4)c2cc1Cl [Compound 156b] | – | < 3 nM | 2.9 nM | –
COc1cc2nccc(N3CCC(CNS(C)(=N)=O)CC3)c2cc1Cl (stereo not drawn) [Compound 157, N-{[1-(6-chloro-7-methoxyquinolin-4-yl)piperidin-4-yl]methyl}methanesulfonoimidamide] | 2.7 nM | – | – | < 3 nM
COc1ccc2c(N3CCC4(CC3)CCN(S(C)(=N)=O)C4)ccnc2n1 (stereo not drawn) [Compound 158, imino[8-(7-methoxy-1,8-naphthyridin-4-yl)-2,8-diazaspiro[4.5]decan-2-yl]methyl-λ^6-sulfanone] | 0.44 nM | – | – | < 3 nM
COc1cc2ncnc(N3CCC4(CC3)CCN([S@@](=N)(=O)C3CC3)C4)c2cc1OC [Compound 160b] | – | – | 1.7 nM | –
COc1cc2nccc(-c3ccc4c(c3)CN([S@](C)(=N)=O)CC4)c2cc1OC [Compound 161b] | – | < 3 nM | 0.64 nM | –
